Source: publication PMC10227015, “From a drug repositioning to a structure-based drug design approach to tackle acute lymphoblastic leukemia” (Nature Communications, 2023)
Like-named read-outs stand apart in the source and are kept apart here.

Assays:
dCK-C3S-S74E = experiment: Enzymatic assay (PK/LDH coupled), dC phosphorylation by dCK in the presence of ATP; assay type: biochemical, human
Method in brief: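 His-purified dCK-C3S-S74E (100 nM, or 50 nM where indicated) phosphorylated 100 µM dC with 1 mM ATP in 50 mM HEPES pH 7.5, 5 mM MgCl2, 1 mM DTT, 100 mM KCl, coupled via PK/LDH/PEP/300 µM NADH. NADH fluorescence decrease (ex 337/em 460 nm) gave velocities normalized to drug-free control; IC50 by nonlinear regression, triplicates.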

[1] = Acute in vivo toxicity, unique IP injection; conditions: male, mouse, in vivo; Swiss mice, IP, unique injection; read-out: Maximum tolerated dose
Procedure: (§1) To evaluate the in vivo toxicity selected compounds were injected by intraperitoneal (IP) route to 7 weeks-old male Swiss mice (n = 2) at 10, 20, 40, 50, or 80 mg/kg by unique injection. […] Compounds were administered in their hydrochloride salt forms. Mice were then observed closely for the next one hour, then every hour for 8 h. Observations were continued for 72 h for signs of pain or toxicity such as change in the behavior and in the activity in the cage (decreased locomotion) or change in the appearance (curved back, eyes half-closed, bristle hair, hips hollowed out). In vivo toxicity of compound OR0642 at 40 and 80 mg/kg was also assessed in the NOD-SCID-IL2Rγc null (NSG) mice model for 2 weeks in the presence and absence of dT to confirm the safety of the compound. […]. Blood samples were collected and spun at 10,000 × g prior to collecting the plasma supernatants. All plasma samples were frozen at −80 °C before sample processing. 13 μl of each plasma sample was mixed with 33 μl of acetonitrile to precipitate proteins and extract the compound. Samples were vortexed for 5 min and then placed in an ultrasonic bath for 1 min. The precipitated proteins were sedimented by centrifugation (15,000 × g, 5 min, 16 °C). Supernatants were transferred to a microplate to be analyzed by LC–MS/MS. All samples were analyzed with a UHPLC coupled to a Shimadzu LC-MS 8030 triple quadrupole. The solutions of a standard range, prepared with plasma from untreated mice, were analyzed in the same series of injections.

[2] = Plasma pharmacokinetics after IP administration; assay type: in vivo; conditions: male, Swiss, mouse, mice
Procedure: as §1

CCRF-CEM cell line = experiment: CCRF-CEM proliferation, compound alone (nonspecific toxicity); assay type: cell-based, human; conditions: for Cell proliferation of the CCRF-CEM cell line Mean (% prolif): 72 h
Procedure: The dCK cellular assay was set up to assess the ability to inhibit dCK activity in a cellular model. The model was developed with a T-cell acute lymphoblastic leukemia cell line (CCRF-CEM), because of its high dependence on the SP, thus on dCK activity. Cellular assays were performed to assess the inhibition of cell proliferation under two conditions: (i) in the presence of the compound alone to determine the nonspecific effect on cells, independent of dCK (nonspecific toxicity) and (ii) in the presence of an inhibitor of the DNP to determine the ability of compounds to inhibit dCK and decrease tumor proliferation (activity on dCK). The inhibitor of the DNP chosen for the experiments was thymidine (dT), a physiological inhibitor of ribonucleotide reductase which arrests cell proliferation in phase S. The dTTP produced via thymidine kinase from dT acts as a RNR inhibitor by an allosteric regulation of the R1 subunit. The addition of the nucleoside deoxycytidine (dC) in the medium allows the rescue of cell proliferation by passing only through the salvage pathway, mediated by dCK. dC needs to be added exogenously to mimic physiological concentrations because it is not present in the cell culture medium, on the contrary to mouse model, in which it is naturally present in the serum. Therefore, cell proliferation under these conditions (+dT +dC) is dCK dependent and it is possible to determine the IC50 of dCK inhibitors on the inhibition of cell proliferation. Results are expressed as % cell proliferation relative to the control with DMSO.
The amount of reduced dye formed by metabolically active cells was quantified by its fluorescence measured at 560 nm (excitation) and 590 nm (emission) in a microplate reader (CLARIOstar, BMG Labtech). A blank well without cells was used as a background control. Each experiment was performed at least three times (with technical triplicates) and data are presented as the mean ± SD.

[3] = presence of ATP, [dCK] = 100 nM, read-out: ENZYMATIC ASSAY IC50

dCK-C3S-S74E, sequence (P27707 whole entry S74E, form open): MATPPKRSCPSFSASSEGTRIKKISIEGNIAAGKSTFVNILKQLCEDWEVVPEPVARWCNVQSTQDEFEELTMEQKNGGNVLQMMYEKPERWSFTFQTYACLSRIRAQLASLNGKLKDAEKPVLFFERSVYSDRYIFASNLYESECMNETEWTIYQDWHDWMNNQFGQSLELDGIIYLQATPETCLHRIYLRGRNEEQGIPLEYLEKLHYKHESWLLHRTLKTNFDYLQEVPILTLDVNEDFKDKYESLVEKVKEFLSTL

SMILES	Enzymatic activity (ATP) Mean (% activity) (dCK-C3S-S74E; 0.16 µM) [%]	Enzymatic activity (ATP) Mean (% activity) (dCK-C3S-S74E; 0.31 µM) [%]	Enzymatic activity (ATP) Mean (% activity) (dCK-C3S-S74E; 0.63 µM) [%]	Enzymatic activity (ATP) Mean (% activity) (dCK-C3S-S74E; 1.25 µM) [%]	Enzymatic activity (ATP) Mean (% activity) (dCK-C3S-S74E; 2.5 µM) [%]	Enzymatic activity (ATP) Mean (% activity) (dCK-C3S-S74E; 5 µM) [%]	Enzymatic activity (ATP) Mean (% activity) (dCK-C3S-S74E; 10 µM) [%]	Enzymatic activity (ATP) Mean (% activity) (dCK-C3S-S74E; 20 µM) [%]	Enzymatic activity (ATP) Mean (% activity) (dCK-C3S-S74E; 40 µM) [%]	IC50 (dCK-C3S-S74E; [3]) [nM]	Enzymatic activity (ATP) Mean (% activity) (dCK-C3S-S74E; 0.04 µM) [%]	Enzymatic activity (ATP) Mean (% activity) (dCK-C3S-S74E; 0.08 µM) [%]	further results
Cc1ccc(-c2ccc(CN3CCN(C)CC3)cc2)cc1Nc1nc(-c2nccc(N)n2)cs1 [OR0274]	86.8	81.3	62.9	44.6	27.8	11.8	11.9	7.8	5.0	1033 ± 10			
Cc1ccc(-c2ccc(CCN3CCN(C)CC3)cc2)cc1Nc1nc(-c2nccc(N)n2)cs1 [OR0325]	87.3	73.6	56.4	34.0	19.3	12.3	11.6	8.1	4.4	826 ± 78			
CCCN(c1nc(-c2nccc(N)n2)cs1)c1cc(-c2ccc(CCN3CCN(C)CC3)cc2)ccc1C [OR0345]	85.5	56.9	22.9	5.3	-9.9	-2.1	-7.8			315 ± 50	96.0	95.1	
CCCN(c1nc(-c2nc(N)cc(N)n2)cs1)c1cc(-c2ccc(CCN3CCN(C)CC3)cc2)ccc1C [OR0600]	43.5	11.4	0.0484	1.1	-0.9	-8.7	-3.1			121 ± 21	92.1	78.6	
CCCN(c1nc(-c2nc(N)cc(N)n2)cs1)c1cc(-c2ccc(CCN3CCN(C)CC3)nc2)ccc1C [OR0602]	23.6	0.751	4.3	6.6	6.1	4.8					81.1	60.0	MTD at 72 h [1]: 10 mg/kg; Cmax ([2]; dose 10 mg/Kg): 960 ± 40 nM; Tmax ([2]; dose 10 mg/Kg): 1 h; half-life ([2]; dose 10 mg/Kg, read-out: T ½ (converted)): 2 ± 0.233 h; nonspecific cellular toxicity (CCRF-CEM cell line; CCRF-CEM, absence of dT + dC): without an increase in nonspecific cellular toxicity; Enzymatic activity (ATP) Mean (% activity) (dCK-C3S-S74E; 0.02 µM): 88.7%; IC50 (dCK-C3S-S74E; ATP, technical limit of the assay, read-out: enzymatic inhibition IC50): 77 nM
CCCN(c1nc(-c2nc(N)cc(N)n2)cs1)c1cc(-c2ccc(S(=O)(=O)N3CCN(C)CC3)c(OC)c2)ccc1C [OR0635]	15.4	4.7	4.6	2.0	1.6						82.4	61.6	MTD at 72 h [1]: > 40 mg/kg; Cmax ([2]; dose 40 mg/Kg): 2000 ± 200 nM; Tmax ([2]; dose 40 mg/Kg): 1.5 h; half-life ([2]; dose 40 mg/Kg, read-out: T ½ (converted)): 6.22 ± 3.38 h; half-life ([2]; read-out: half-life): > 5 h; Enzymatic activity (ATP) Mean (% activity) (dCK-C3S-S74E; 0.01 µM): 71.4%; Enzymatic activity (ATP) Mean (% activity) (dCK-C3S-S74E; 0.02 µM): 74.5%; IC50 (dCK-C3S-S74E; presence of ATP, [dCK] = 50 nM (footnote A), read-out: ENZYMATIC ASSAY IC50): 66 ± 11 nM
Cc1ccc(NC(=O)c2ccc(CN3CCN(C)CC3)cc2)cc1Nc1nc(-c2nccc(N)n2)cs1 [dCKi1]	93.7	94.8	91.7	77.3	51.8	30.3	11.5	3.9	3.1	2660 ± 608			Cell proliferation of the CCRF-CEM cell line Mean (% prolif) (CCRF-CEM cell line; compound 10 µM alone): 76.3%
Cc1ccc(NC(=O)c2ccc(CN3CCN(C)CC3)cc2)cc1Nc1nc(-c2nc(N)cc(N)n2)cs1 [dCKi2, N-(3-((4-(4,6-diaminopyrimidin-2-yl)thiazol-2-yl)amino)-4-methylphenyl)-4-((4-methylpiperazin-1-yl)methyl)benzamide]	97.2	85.8	62.1	35.4	16.5	3.9	3.9	2.6	5.2	903 ± 37			Cell proliferation of the CCRF-CEM cell line Mean (% prolif) (CCRF-CEM cell line; compound 10 µM alone): 78.4%
Cc1cn([C@H]2C[C@H](O)[C@@H](CO)O2)c(=O)[nH]c1=O [dT, thymidine]													Cell proliferation of the CCRF-CEM cell line Mean (% prolif) (CCRF-CEM cell line; dT 111 µM alone): 33.2%
